Experimental data as given in PubChem BioAssay (NCI).
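Five compound concentrations were applied to cells in 96-well plates for 48 hours; endpoints were derived by simple linear interpolation of the resulting dose-response curve. Abbreviation: GI50, concentration required for 50% inhibition of growth. TGI: concentration producing complete growth inhibition.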

Key:
Experiment in all cases: NCI-60 cell line screen, 48 h; in the data active = GI50 below about 0.43 µM; inactive = the rest
[1] = system: A498 renal
[2] = system: NCI/ADR-RES ovarian
[3] = system: HOP-92 NSCLC
[4] = system: A549 NSCLC
[5] = system: TK-10 renal
[6] = system: HL-60(TB) leukemia
[7] = system: NCI-H23 lung
[8] = system: SW-620 colon
[9] = system: SK-MEL-2 melanoma
[10] = system: CAKI-1 renal
[11] = system: EKVX NSCLC
[12] = system: NCI-H522 lung
[13] = system: HOP-62 NSCLC
[14] = system: OVCAR-5 ovarian
[15] = system: HS 578T breast
[16] = system: RPMI-8226 leukemia
[17] = system: HT29 colon
[18] = system: SK-OV-3 ovarian
[19] = system: SNB-75 CNS
[20] = system: UO-31 renal
[21] = system: SN12C renal
[22] = system: KM12 colon
[23] = system: U251 CNS
[24] = system: SK-MEL-5 melanoma
[25] = system: LOX IMVI melanoma
[26] = system: MOLT-4 leukemia
[27] = system: OVCAR-4 ovarian
[28] = system: HCT-15 colon
[29] = system: PC-3 prostate
[30] = system: SF-268 CNS
[31] = system: MDA-MB-435
[32] = system: MDA-MB-231 breast
[33] = system: SF-295 CNS
[34] = system: UACC-257 melanoma
[35] = system: OVCAR-3 ovarian
[36] = system: HCT-116 colon
[37] = system: T-47D breast
[38] = system: IGROV1 ovarian
[39] = system: OVCAR-8 ovarian
[40] = system: HCC-2998 colon
[41] = system: MCF7 breast
[42] = system: ACHN renal
[43] = system: COLO 205 colon
[44] = system: NCI-H226 lung
[45] = system: RXF 393 renal
[46] = system: SR leukemia
[47] = system: DU-145 prostate
[48] = system: SK-MEL-28 melanoma
[49] = system: CCRF-CEM leukemia
[50] = system: UACC-62 melanoma
[51] = system: SNB-19 CNS
[52] = system: 786-0 renal
[53] = system: MALME-3M melanoma
[54] = system: NCI-H460 lung
[55] = system: M14 melanoma
[56] = system: SF-539 CNS
[57] = system: K-562 leukemia
[58] = system: BT-549 breast

O=C(N/N=C\c1cc(Cl)ccc1O)c1ccncc1
19 µM: TGI [24]
23.4 µM: TGI [55]
inactive: GI50 [1] 15.2 µM | GI50 [2] 2.01 µM | GI50 [3] 3.47 µM | GI50 [4] 12.9 µM | GI50 [5] 17.6 µM | GI50 [6] 3.02 µM | GI50 [7] 4.01 µM | GI50 [8] 3.42 µM | GI50 [9] 19.5 µM | GI50 [10] 1.65 µM | GI50 [11] 27.3 µM | GI50 [12] 2.69 µM | GI50 [13] 2.97 µM | GI50 [14] 25.5 µM | GI50 [15] 26 µM | GI50 [16] 8.85 µM | GI50 [17] 5.9 µM | GI50 [18] 5.39 µM | GI50 [19] 9.29 µM | GI50 [20] 2.18 µM | GI50 [21] 4 µM | GI50 [22] 4.61 µM | GI50 [23] 1.86 µM | GI50 [24] 1.96 µM | GI50 [25] 1.56 µM | GI50 [26] 2.91 µM | GI50 [27] 0.967 µM | GI50 [28] 0.576 µM | GI50 [29] 3.69 µM | GI50 [30] 2.69 µM | GI50 [31] 11.7 µM | GI50 [32] 3.67 µM | GI50 [33] 5.29 µM | GI50 [34] 4.16 µM | GI50 [35] 0.617 µM | GI50 [36] 1.63 µM | GI50 [37] 2.1 µM | GI50 [38] 6.16 µM | GI50 [39] 3.39 µM | GI50 [40] 3.03 µM | GI50 [41] 2.05 µM | GI50 [42] 1.91 µM | GI50 [43] 4.21 µM | GI50 [44] 2.61 µM | GI50 [45] 2.43 µM | GI50 [46] 2.85 µM | GI50 [47] 4.63 µM | GI50 [48] 3.05 µM | GI50 [49] 2.15 µM | GI50 [50] 1.48 µM | GI50 [51] 5.95 µM | GI50 [52] 2.6 µM | GI50 [53] 14.6 µM | GI50 [54] 1.46 µM | GI50 [55] 3.05 µM | GI50 [56] 3.97 µM | GI50 [57] 4.55 µM | GI50 [58] 9.18 µM
32.2 µM: TGI [52]
22.4 µM: TGI [12]
73.5 µM: TGI [27]
13.7 µM: TGI [50]
> 100 µM: TGI [1] | TGI [2] | TGI [4] | TGI [5] | TGI [6] | TGI [7] | TGI [8] | TGI [9] | TGI [10] | TGI [11] | TGI [13] | TGI [14] | TGI [15] | TGI [16] | TGI [17] | TGI [18] | TGI [19] | TGI [20] | TGI [21] | TGI [22] | TGI [23] | TGI [25] | TGI [26] | TGI [28] | TGI [29] | TGI [30] | TGI [31] | TGI [32] | TGI [33] | TGI [34] | TGI [35] | TGI [36] | TGI [37] | TGI [38] | TGI [39] | TGI [40] | TGI [41] | TGI [42] | TGI [43] | TGI [45] | TGI [46] | TGI [47] | TGI [48] | TGI [49] | TGI [51] | TGI [53] | TGI [54] | TGI [56] | TGI [57] | TGI [58]
61.3 µM: TGI [3]
59 µM: TGI [44]

CCOC(=O)/C=C\[C@H]1OC(C)(C)O[C@H]1[C@H](O)[C@H]1COC(C)(C)O1
35 µM: TGI [31] | TGI [45]
29.7 µM: TGI [12]
37.6 µM: TGI [1] | TGI [29]
39 µM: TGI [36] | TGI [49]
37.2 µM: TGI [46]
28.6 µM: TGI [40]
32.6 µM: TGI [14] | TGI [23] | TGI [42]
39.2 µM: TGI [52]
46.1 µM: TGI [17]
46.5 µM: TGI [27]
30.8 µM: TGI [5]
31.3 µM: TGI [3]
37.7 µM: TGI [38]
62.4 µM: TGI [6]
7.88 µM: TGI [10]
46.7 µM: TGI [37]
42.3 µM: TGI [16]
33.9 µM: TGI [32]
40.5 µM: TGI [26]
> 100 µM: TGI [2] | TGI [4] | TGI [13] | TGI [18] | TGI [22] | TGI [33] | TGI [39] | TGI [44] | TGI [47] | TGI [51] | TGI [54]
33.5 µM: TGI [21] | TGI [24]
50.1 µM: TGI [7] | TGI [11]
55.5 µM: TGI [34]
32.2 µM: TGI [35]
35.6 µM: TGI [48]
36.8 µM: TGI [8]
60.7 µM: TGI [50]
93.2 µM: TGI [15]
41.7 µM: TGI [53]
42.2 µM: TGI [58]
44.7 µM: TGI [57]
72.6 µM: TGI [30]
33.1 µM: TGI [28]
32.3 µM: TGI [43]
32.1 µM: TGI [56]
33 µM: TGI [55]
52.4 µM: TGI [9]
39.9 µM: TGI [25]
40.7 µM: TGI [41]
34.4 µM: TGI [20]
13.3 µM: TGI [19]
